The NIST ThermoML archive (doi:10.1016/j.jct.2018.12.018)
± gives the expanded uncertainty stated by the source.

Details: Liquid, Vibrating tube method

CC(C)O [propan-2-ol]
mass density [kg/m3]
Details | 333.15 K | 353.15 K | 373.15 K | 393.15 K
1000 kPa | – | 729.8 ± 0.7 | 706.6 ± 0.7 | 680.4 ± 0.7
5000 kPa | – | 735 ± 0.7 | 712.8 ± 0.7 | 688.2 ± 0.7
10000 kPa | – | 741 ± 0.7 | 719.9 ± 0.7 | 696.7 ± 0.7
15000 kPa | – | 746.5 ± 0.7 | 726.3 ± 0.8 | 704.4 ± 0.8
20000 kPa | – | 751.7 ± 0.8 | 732 ± 0.8 | 711.4 ± 0.8
25000 kPa | 773.6 ± 0.8 | 756.5 ± 0.8 | 737.7 ± 0.8 | 717.6 ± 0.8
30000 kPa | 777.7 ± 0.8 | 761 ± 0.8 | 742.9 ± 0.8 | 723.5 ± 0.8
35000 kPa | 781.5 ± 0.8 | 765.4 ± 0.8 | 747.8 ± 0.8 | 729 ± 0.8
40000 kPa | 785.3 ± 0.8 | 769.3 ± 0.8 | 752.2 ± 0.8 | 734.2 ± 0.9
45000 kPa | 788.9 ± 0.8 | 773.3 ± 0.8 | 756.6 ± 0.9 | 739 ± 0.9
50000 kPa | 792.3 ± 0.8 | 777 ± 0.9 | 760.7 ± 0.9 | 743.5 ± 0.9
55000 kPa | 795.6 ± 0.9 | 780.6 ± 0.9 | 764.7 ± 0.9 | 747.9 ± 0.9
60000 kPa | 798.7 ± 0.9 | 784 ± 0.9 | 768.6 ± 0.9 | 752.1 ± 1
65000 kPa | 801.8 ± 0.9 | 787.4 ± 0.9 | 772.1 ± 0.9 | 756.1 ± 1
70000 kPa | 804.8 ± 0.9 | 790.6 ± 0.9 | 775.6 ± 1 | 760 ± 1
80000 kPa | 810.5 ± 0.9 | 796.7 ± 1 | 782.3 ± 1 | 767.2 ± 1
90000 kPa | 815.9 ± 1 | 802.6 ± 1 | 788.5 ± 1.1 | 773.9 ± 1.1
100000 kPa | 820.9 ± 1 | 808 ± 1 | 794.4 ± 1.1 | 780.2 ± 1.1
110000 kPa | 825.8 ± 1 | 813.2 ± 1.1 | 799.9 ± 1.1 | 786.2 ± 1.2
120000 kPa | 830.4 ± 1.1 | 818.1 ± 1.1 | 805.3 ± 1.2 | 791.8 ± 1.2
130000 kPa | 834.8 ± 1.1 | 822.8 ± 1.1 | 810.2 ± 1.2 | 797.2 ± 1.3
140000 kPa | 839.2 ± 1.1 | 827.3 ± 1.2 | 815.1 ± 1.2 | 802.3 ± 1.3
